As usually defined, the IC50 is the midpoint of a concentration-inhibition curve.

The target of assay [1] is T1, human orexin-1 receptor (hOX1R) (Homo sapiens, UniProt O43613).
T1 construct: expressed in transfected cells; host or cells: Chinese hamster ovary (CHO) cells
T1 sequence (O43613 1-425): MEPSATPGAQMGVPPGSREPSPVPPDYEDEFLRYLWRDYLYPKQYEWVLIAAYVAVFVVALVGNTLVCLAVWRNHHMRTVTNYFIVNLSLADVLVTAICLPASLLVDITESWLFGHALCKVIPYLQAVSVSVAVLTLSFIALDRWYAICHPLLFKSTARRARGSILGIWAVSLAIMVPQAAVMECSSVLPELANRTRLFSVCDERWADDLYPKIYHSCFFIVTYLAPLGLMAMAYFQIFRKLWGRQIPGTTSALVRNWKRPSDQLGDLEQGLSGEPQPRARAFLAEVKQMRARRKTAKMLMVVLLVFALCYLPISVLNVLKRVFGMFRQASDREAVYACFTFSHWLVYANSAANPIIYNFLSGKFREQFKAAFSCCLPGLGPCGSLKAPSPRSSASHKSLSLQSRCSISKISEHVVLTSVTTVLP
The assay can be described thus: Orexin antagonistic activity assay (intracellular Ca2+, FDSS) in CHO cells expressing hOX1R. The format is cell-based. The following applies: CHO cells expressing hOX1R; ligand peptide 300 pM; Fluo-3 maximum fluorescence intensity; read-out: IC50 value OX1. Here is the method:
(§1) The antagonistic activity of each test compound against human orexin-1 receptor (hOX1R) and orexin-2 receptor (hOX2R) was assayed by a modification of a method described in the literature (Toshikatsu Okumura et al., Biochemical and Biophysical Research Communications 280, 976-981, 2001). Chinese hamster ovary (CHO) cells forced to express hOX1R or hOX2R were inoculated at a density of 20,000 cells/well to a 96-well Black clear bottom plate (Nunc) and cultured at 37° C. for 16 hours under 5% CO2 conditions in a Ham's F-12 medium containing 0.1 mM MEM nonessential amino acids, 0.5 mg/ml G418, and 10% fetal bovine serum (all from Invitrogen Corp.). After removal of the medium, 100 μL of a buffer solution for assay (25 mM HEPES (Dojindo Laboratories), Hanks' balanced salt solution (Invitrogen Corp.), 0.1% bovine serum albumin, 2.5 mM probenecid, and 200 μg/ml Amaranth (all from Sigma-Aldrich Corp.), pH 7.4) containing 0.5 μM Fluo-3 AM ester (Dojindo Laboratories) was added to the cells, which were then incubated at 37° C. for 60 minutes under 5% CO2 conditions. After removal of the buffer solution for assay containing Fluo-3 AM ester, each test compound was dissolved at a concentration of 10 mM in dimethyl sulfoxide and diluted with a buffer solution for assay. Then, 150 μL of the solution was added to the cells, which were then incubated for 30 minutes.
(§2) A ligand peptide (Pyr-[…]NH2; Peptide Institute, Inc.) derived from human orexin-A by the substitution of two amino acids was diluted with a buffer solution for assay to final concentrations of 300 pM for hOX1R and 3 nM for hOX2R. Reaction was initiated by the addition of 50 μL of this ligand solution. The fluorescence intensity of the reaction was measured in each well every second for 3 minutes using Functional Drug Screening System (FDSS; manufactured by Hamamatsu Photonics K.K.), and the maximum fluorescence intensity was used as an index for intracellular Ca^2+ concentration to determine antagonistic activity. The antagonistic activity of the test compound was calculated with fluorescence intensity from a well supplemented with only a diluting buffer solution as 100% and fluorescence intensity from a well supplemented with a buffer solution free from the ligand and the compound as 0%. The 50% inhibitory concentration (IC50 value) was determined on the basis of fluorescence intensity derived from the test compound added at varying concentrations.

For assay [2], the target named is T2, orexin-2 receptor (hOX2R) (Homo sapiens, UniProt O43614).
T2 construct: expressed in transfected cells; host or cells: Chinese hamster ovary (CHO) cells
T2 sequence (O43614 1-444): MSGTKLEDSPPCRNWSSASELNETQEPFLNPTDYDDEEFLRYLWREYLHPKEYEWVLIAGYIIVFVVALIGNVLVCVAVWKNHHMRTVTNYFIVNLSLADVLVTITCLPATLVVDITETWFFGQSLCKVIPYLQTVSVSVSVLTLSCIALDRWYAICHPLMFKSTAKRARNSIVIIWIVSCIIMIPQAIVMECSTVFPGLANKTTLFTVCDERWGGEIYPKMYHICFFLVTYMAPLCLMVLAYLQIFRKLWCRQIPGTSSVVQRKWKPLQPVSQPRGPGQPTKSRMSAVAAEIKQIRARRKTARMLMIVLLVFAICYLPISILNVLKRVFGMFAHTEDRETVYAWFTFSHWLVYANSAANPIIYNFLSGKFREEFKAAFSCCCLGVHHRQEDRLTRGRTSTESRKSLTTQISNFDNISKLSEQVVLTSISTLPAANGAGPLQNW
Nature of the assay: Orexin antagonistic activity assay (intracellular Ca2+, FDSS) in CHO cells expressing hOX2R. The format is cell-based. The following applies: CHO cells expressing hOX2R; ligand peptide 3 nM; Fluo-3 maximum fluorescence intensity; read-out: IC50 value OX2. Here is the method:
as §1, §2

Take `C[C@@H]1CC[C@@H](c2nc3ccc(Cl)cc3o2)CN1C(=O)c1cc(F)ccc1-c1ncccn1` [Example 45, [(2R,5R)-5-(6-Chloro-1,3-benzoxazol-2-yl)-2-methylpiperidin-1-yl][5-fluoro-2-(pyrimidin-2-yl)phenyl]methanone]: the IC50 in assay [1] was determined as 0.0772 µM; in assay [2] it was 0.0122 µM.

Regarding `C[C@@H]1CC[C@@H](c2nc3cc(F)c(F)cc3o2)CN1C(=O)c1cc(Cl)ccc1-c1ncccn1` [Example 53, [5-Chloro-2-(pyrimidin-2-yl)phenyl][(2R,5R)-5-(5,6-difluoro-1,3-benzoxazol-2-yl)-2-methylpiperidin-1-yl]methanone], the IC50 amounted to 0.0563 µM in assay [1] and 0.0132 µM in assay [2].

`Cc1ccc(-n2nccn2)c(C(=O)N2C[C@H](c3nc4cc(F)cc(F)c4o3)CC[C@H]2C)c1` [Example 62, [(2R,5R)-5-(5,7-Difluoro-1,3-benzoxazol-2-yl)-2-methylpiperidin-1-yl][5-methyl-2-(2H-1,2,3-triazol-2-yl)phenyl]methanone]: the IC50 in assay [1] stood at 0.0248 µM; in assay [2], 0.0043 µM.

On to `C[C@@H]1CC[C@@H](c2nc3ccc(Cl)cc3o2)CN1C(=O)c1c(F)cccc1-n1nccn1` [Example 48, [(2R,5R)-5-(6-Chloro-1,3-benzoxazol-2-yl)-2-methylpiperidin-1-yl][2-fluoro-6-(2H-1,2,3-triazol-2-yl)phenyl]methanone], for which the IC50 in assay [1] was 0.0588 µM; in assay [2] it was 0.0124 µM.

In the case of `C[C@@H]1CC[C@@H](c2nc3cc(F)ccc3o2)CN1C(=O)c1cc(F)ccc1-c1ncccn1` [Example 32, [(2R,5R)-5-(5-Fluoro-1,3-benzoxazol-2-yl)-2-methylpiperidin-1-yl][5-fluoro-2-(pyrimidin-2-yl)phenyl]methanone], the values for the IC50 in assay [1] and in assay [2] were 0.0249 µM and 0.0082 µM, respectively.

As to `C[C@@H]1CC[C@@H](c2nc3ccc(F)cc3o2)CN1C(=O)c1cc(Cl)ccc1-c1ncccn1` [Example 49, [5-Chloro-2-(pyrimidin-2-yl)phenyl][(2R,5R)-5-(6-fluoro-1,3-benzoxazol-2-yl)-2-methylpiperidin-1-yl]methanone], the IC50 in assay [1] amounted to 0.103 µM; in assay [2], 0.0931 µM.

For the compound `Cc1ccc(-c2ncccn2)c(C(=O)N2C[C@H](c3nc4cc(Cl)ccc4o3)CC[C@H]2C)c1` (single isomer, unassigned) [Example 5, [(2R*,5R*)-5-(5-Chloro-1,3-benzoxazol-2-yl)-2-methylpiperidin-1-yl][5-methyl-2-(pyrimidin-2-yl)phenyl]methanone], the figures for the IC50 in assay [1] and in assay [2] were 0.0031 µM and 0.0043 µM, respectively.

For `Cc1ccc(-n2nccn2)c(C(=O)N2C[C@H](c3nc4cc(C(F)(F)F)ccc4o3)CC[C@H]2C)c1` [Example 36, [5-Methyl-2-(2H-1,2,3-triazol-2-yl)phenyl][(2R,5R)-2-methyl-5-[5-(trifluoromethyl)-1,3-benzoxazol-2-yl]piperidin-1-yl]methanone], the IC50 in assay [1] was found to be 0.0089 µM; in assay [2] it was 0.0025 µM.

Turning to `Cc1ccc(-n2nccn2)c(C(=O)N2C[C@H](c3nc4c(F)cccc4o3)CC[C@H]2C)c1` [Example 66, [(2R,5R)-5-(4-Fluoro-1,3-benzoxazol-2-yl)-2-methylpiperidin-1-yl][5-methyl-2-(2H-1,2,3-triazol-2-yl)phenyl]methanone], the figures for the IC50 in assay [1] and in assay [2] were 0.0365 µM and 0.0204 µM, respectively.

For `Cc1ccc(-n2nccn2)c(C(=O)N2C[C@H](c3nc4cc(F)ccc4o3)CC[C@H]2C)c1` (single isomer, unassigned) [Example 10, [(2R*,5R*)-5-(5-Fluoro-1,3-benzoxazol-2-yl)-2-methylpiperidin-1-yl][5-methyl-2-(2H-1,2,3-triazol-2-yl)phenyl]methanone], the IC50 in assay [1] was 0.0048 µM; in assay [2], 0.0049 µM.

For the compound `C[C@@H]1CC[C@@H](c2nc3cc(C(F)(F)F)ccc3o2)CN1C(=O)c1cc(Cl)ccc1-c1ncccn1` [Example 39, [5-Chloro-2-(pyrimidin-2-yl)phenyl]{(2R,5R)-2-methyl-5-[5-(trifluoromethyl)-1,3-benzoxazol-2-yl]piperidin-1-yl}methanone], the figures for the IC50 in assay [1] and in assay [2] were 0.123 µM and 0.0263 µM, respectively.

Regarding `C[C@@H]1CC[C@@H](c2nc3cc(Cl)ccc3o2)CN1C(=O)c1cccc(F)c1-n1nccn1` [Example 15, [(2R,5R)-5-(5-Chloro-1,3-benzoxazol-2-yl)-2-methylpiperidin-1-yl][3-fluoro-2-(2H-1,2,3-triazol-2-yl)phenyl]methanone], the IC50 in assay [1] came to 0.142 µM; in assay [2] it was 0.0097 µM.

On to `C[C@@H]1CC[C@@H](c2nc3cc(F)c(F)cc3o2)CN1C(=O)c1cc(F)ccc1-c1ncccn1` [Example 52, [(2R,5R)-5-(5,6-Difluoro-1,3-benzoxazol-2-yl)-2-methylpiperidin-1-yl][5-fluoro-2-(pyrimidin-2-yl)phenyl]methanone], for which the figures for the IC50 in assay [1] and in assay [2] were 0.0829 µM and 0.011 µM, respectively.

`Cc1ccc(-c2ncccn2)c(C(=O)N2C[C@H](c3nc4ccc(F)c(F)c4o3)CC[C@H]2C)c1` [Example 59, [(2R,5R)-5-(6,7-Difluoro-1,3-benzoxazol-2-yl)-2-methylpiperidin-1-yl][5-methyl-2-(pyrimidin-2-yl)phenyl]methanone]: the figures for the IC50 in assay [1] and in assay [2] were 0.0044 µM and 0.0092 µM, respectively.

Regarding `C[C@@H]1CC[C@@H](c2nc3cc(Cl)ccc3o2)CN1C(=O)c1ccccc1-n1nccn1` (single isomer, unassigned) [Example 3, [(2R*,5R*)-5-(5-Chloro-1,3-benzoxazol-2-yl)-2-methylpiperidin-1-yl][2-(2H-1,2,3-triazol-2-yl)phenyl]methanone], the IC50 in assay [1] came to 0.0181 µM; in assay [2] it was 0.0041 µM.

For `Cc1ccc(-n2nccn2)c(C(=O)N2C[C@H](c3nc4cc(F)ccc4o3)CC[C@H]2C)n1` (single isomer, unassigned) [Example 11, [(2R*,5R*)-5-(5-Fluoro-1,3-benzoxazol-2-yl)-2-methylpiperidin-1-yl][6-methyl-3-(2H-1,2,3-triazol-2-yl)pyridin-2-yl]methanone], the IC50 stood at 0.0421 µM in assay [1] and 0.0437 µM in assay [2].

Take `Cc1ccc(-n2nccn2)c(C(=O)N2C[C@H](c3nc4cc(OC(F)(F)F)ccc4o3)CC[C@H]2C)n1` [Example 42, [6-Methyl-3-(2H-1,2,3-triazol-2-yl)pyridin-2-yl]{(2R,5R)-2-methyl-5-[5-(trifluoromethoxy)-1,3-benzoxazol-2-yl]piperidin-1-yl}methanone]: the figures for the IC50 in assay [1] and in assay [2] were 1.04 µM and 0.919 µM, respectively.

As for `Cc1ccc(-n2nccn2)c(C(=O)N2C[C@H](c3nc4cc(F)cc(F)c4o3)CC[C@H]2C)n1` [Example 64, [(2R,5R)-5-(5,7-Difluoro-1,3-benzoxazol-2-yl)-2-methylpiperidin-1-yl][6-methyl-3-(2H-1,2,3-triazol-2-yl)pyridin-2-yl]methanone], the IC50 in assay [1] stood at 0.144 µM; in assay [2], 0.0285 µM.

The record behind these values is patent US20140228377A1, “METHYLPIPERIDINE DERIVATIVE” (TAISHO PHARMACEUTICAL CO., LTD., priority 2011, published 2014).
